According to US20230339882A1, “SHP2 INHIBITOR AND COMPOSITION AND APPLICATION THEREOF” (Betta Pharmaceuticals Co., Ltd., priority 2020, published 2023):

Experiments:
SHP2 = SHP2 (Homo sapiens (Human), UniProt Q06124); assay: SHP2 allosteric inhibitory enzyme activity assay (DiFMUP fluorescence); type: biochemical; settings: read-out: SHP2 enzymatic activity IC50
From the text: Example A: SHP2 Allosteric Inhibitory Enzyme Activity Assay
SHP2 is allosterically activated by binding of a bis-tyrosyl-phosphorylated peptide to its Src homology 2 (SH2) domain. This later activation step results in the release of the autoinhibitory interface of SHP2, which in turn activates the SHP2 protein tyrosine phosphatase (PTP) and is available for substrate recognition and reaction catalysis. The catalytic activity of SHP2 was monitored using the surrogate DiFMUP in a rapid fluorescence assay format.
experiment procedure: • (1) Compound preparation: • The compounds of the present invention (10 mM stock solution) were diluted to appropriate times with 100% DMSO, and the final test concentrations of the compounds of the present invention were 10 µM, 3.3333 µM, 1.1111 µM, 0.3704 µM, 0.1235 µM, 0.0412 µM, 0.0137 µM, 0.0046 µM, 0.0015 µM, 0.00 µM; • (2) Prepare the enzyme reaction working solution: • Perform SHP2 enzymatic assays in 96-well black polystyrene plates (flat bottom, low flange, non-binding surface) (Perki Elmer, Cat#6005270) at room temperature using a final reaction volume of 50 µL and the following assay buffer conditions: 60 mM HEPES, 75 mM NaCl, 75 mM KCl, 0.05% BRIJ-35, 1 mM EDTA, 5 mM DTT. • (3) Enzyme-catalyzed reaction and data monitoring: • Add the compound of the present invention to the corresponding 96-well plate, and set the blank test well without compound and enzyme only with buffer. Thaw SHP2 Activating Peptide (IRS1_pY1172(dPEG8)pY1222) on ice, add 25 µM to each well, then add 0.2 ng of SHP2 protein sample to the corresponding well plate and incubate at room temperature for 1 hour. The surrogate substrate DiFMUP (Invitrogen, Cat #D6567) was added to the reaction and allowed to react for 1 hour at room temperature. Fluorescence signals were monitored using a microplate reader (Envision, Perki Elmer) using excitation and emission wavelengths of 340 nm and […], respectively. • (4) Data analysis: • Calculation Formula: • [formula]
Among them: Conversion_sample is the conversion rate reading of the sample; Conversion_min is the average value of blank control wells, representing the conversion rate readings of wells without enzymatic activity; Conversion_max is the mean ratio of positive control wells, representing the conversion rate readings of wells without compound inhibition. The log(inhibitor) vs. response-Variable slope of the analysis software GraphPad Prism was used to fit the dose-response curve, and the IC50 value of the compound for the enzymatic activity was calculated.

[1] = test system: lung cancer cells NCI-H358; assay: Cell proliferation assay, CELL TITER-GLO (CTG) luminescence, NCI-H358; type: cell-based; settings: cultured for 96 hrs
Procedure: (§1) Example B: Cell Proliferation Assay
(§2) The effects of the compounds of the invention on the proliferation of leukemia cells MV-4-11 and lung cancer cells NCI-H358 were evaluated using in vitro cell assays. The detection method used in the experiment is the CELL TITER-GLO (CTG) luminescence method, which can detect the number of viable cells by quantifying ATP. Because ATP participates in a variety of enzymatic reactions in vivo, it is an indicator of the metabolism of living cells, and its content directly reflects the number and state of cells. During the experiment, CellTiter-Glo™ reagent was added to the cell culture medium to measure the luminescence value. The value is proportional to the amount of ATP, and ATP is positively related to the number of living cells, so the cell viability can be examined by detecting the ATP content.
(§3) experiment procedure: • (1) Cell plating: • Take a bottle of MV-4-11 cells in logarithmic growth phase, resuspend the cells by centrifugation and count them. After adjusting the cell density, they were seeded into a 96-well plate (Corning #3917). After culturing in a 5% CO2 incubator for 24 hrs, the compound of the present invention was added for treatment; • Take a bottle of NCI-H358 cells in logarithmic growth phase, digest and resuspend the cells, count them, adjust the cell density, and inoculate them into a 96-well transparent ultra-low adsorption cell culture plate (Corning #3474), inoculate 2000 cells per well. The plate was placed in an incubator at 37° C. and 5% CO2 for 24 hrs, and then the compound of the present invention was added for treatment; • (2) Cell compound treatment: • An appropriate amount of the compound of the present invention was prepared for cell treatment. The final concentration of the compound from high to low was 1000 nM, 333.3 nM, 111.1 nM, 37.04 nM, 12.35 nM, 4.115 nM, 1.372 nM, 0.4572 nM, 0.1524 nM, and 0 nM. The plate was placed in a 37° C., 5% CO2 incubator for 120 hrs. Only adding medium without cell wells was set as the blank group; the group with compound concentration of 0 nM was the zero-adjusting group. • (3) CTG detection: • After NCI-H358 cells were cultured for 96 hrs, 50 µL of CellTiter-Glo® Luminescent Cell Viability Assay solution was added to each well, shaken gently for 2 mins, and incubated at room temperature for 10 mins. The cell reaction system was transferred to a white-bottomed 96-well plate. Read the detection value of each well on a multi-function microplate reader. • After MV-4-11 cells were cultured for 120 hrs, 50 µL of CellTiter-Glo® Luminescent Cell Viability Assay solution was added to each well, gently shaken for 2 mins, and incubated at room temperature for 10 mins. Check the value. • (4) Data analysis: • Calculate the inhibition rate from the luminescence value readings, • [formula]
(§4) The log(inhibitor) vs. response-Variable slope of GraphPad Prism was fitted to dose-response curves and IC50s of compounds that inhibited cell proliferation were calculated.

leukemia cells MV-4-11 = assay: Cell proliferation assay, CELL TITER-GLO (CTG) luminescence, MV-4-11; type: cell-based
Procedure: as §1, §2, §3, §4

[2] = Homo sapiens, NCI-H358, ultra-low adsorption plate
[3] = Homo sapiens, MV4-11, cultured for 120 hrs

| Compound | IC50 (SHP2) [nM] | IC50 ([1]; ultra-low adsorption plate) [nM] | IC50 (leukemia cells MV-4-11; cultured for 120 hrs) [nM] | IC50 [1, 2] [nM] | IC50 (leukemia cells MV-4-11; [3]) [nM] |
| --- | --- | --- | --- | --- | --- |
| COc1ccc(NCC#Cc2cnc(N3CCC4(CC3)Cc3ccccc3[C@H]4N)c(CO)n2)cc1OC [Compound A47, (S)-(3-(1-amino-1,3-dihydrospiro [indene-2,4′-piperidin]-1′-yl)-6-(3-((3,4-dimethoxyphenyl)amino)prop-1-yn-1-yl)pyrazin-2-yl)] | 4 | 48 | 17 |  |  |
| N[C@@H]1c2ccccc2CC12CCN(c1ncc(C#CCNc3ccccc3)nc1CO)CC2 [Compound A07, (S)-(3-(1-amino-1,3-dihydrospiro [indene-2,4′-piperidine]-1′-yl)-6-(3-(phenylamino)prop-1-yn-1-yl)pyrazin-2-yl) methanol] | 2.5 |  |  | 12 | 5.5 |
| (S)-(3-(1-amino-1,3-dihydrospiro[ indene-2,4′-piperidin]-1′-yl)-6-(3-( 3,4-dimethoxyphenoxy)prop-1-yn-1-y 1)pyrazin-2-yl)methanol [Compound A11] | 1.5 | 6.3 | 2.6 |  |  |
| N[C@@H]1c2ccccc2CC12CCN(c1ncc(C#CCOc3ccc(C(=O)NC4CC4)cc3)nc1CO)CC2 [Compound A76, (S)-4-((3-(5-(1-amino-1,3-dihydrospiro[indene-2,4′-piperidin]-1′-yl)-6-(hydroxymethyl)pyrazin-2-yl)prop-2-yn-1-yl)oxy)-N-cyclopropyl benzamide] | 3.4 | 19 | 3.3 |  |  |
| (S)-(3-(1-amino-1,3-dihydrospiro[ indene-2,4′-piperidin]-1′-yl)-6-(3-( benzo[d][1,3]dioxyol-5-oxy)prop-1-yn-1-yl)pyrazin-2-yl)methanol [Compound A28] | 1.5 | 7 | 6.1 |  |  |
| COc1ccc2c(c1)[C@@H](N)C1(CCN(c3ncc(C#CCOc4ccc(C(N)=O)cc4)nc3CO)CC1)C2 [Compound A58, (S)-4-((3-(5-(1-amino-6-methoxy-1,3-dihydrospiro[indene-2,4′-piperidin]-1′-yl)-6-(hydroxymethyl)pyrazin-2-yl)prop-2-yn-1-yl)oxy)benzamide] | 1.5 |  |  | 4 | 0.8 |
| N#Cc1cccc(OCC#Cc2cnc(N3CCC4(CC3)Cc3ccccc3[C@H]4N)c(CO)n2)c1 [Compound A53, (S)-3-((3-(5-(1-amino-1,3-dihydrospiro[indene-2,4′-piperidin]-1′-yl)-6-(hydroxymethyl)pyrazin-2-yl)prop-2-yn-1-yl)oxy)benzonitrile] | 3.3 |  |  | 27 | 8.1 |
| Cc1nc2cc(OCC#Cc3cnc(N4CCC5(CC4)Cc4ccccc4[C@H]5N)c(CO)n3)ccc2[nH]1 [Compound A73, (S)-(3-(1-amino-1,3-dihydrospiro[indene-2,4′-piperidin]-1′-yl)-6-(3-( (2-methyl-1H-Benzo[d]imidazol-5-yl)oxy)prop-1-yn-1-yl)pyrazin-2-yl)methanol] | 3.1 |  |  | 3.4 | 1.1 |
| N[C@@H]1c2ccccc2CC12CCN(c1ncc(C#CCNc3ccc(C(F)(F)F)nc3)nc1CO)CC2 [Compound A63, (S)-(3-(1-amino-1,3-dihydrospiro[indene-2,4′-piperidin]-1′-yl)-6-(3-( (6-(trifluoromethyl)pyridin-3-yl)amino)prop-1-yn-1-yl)pyrazin-2-yl)methanol] | 5 |  |  | 36 | 11 |
| CC(=O)Nc1cccc(NCC#Cc2cnc(N3CCC4(CC3)Cc3ccccc3[C@H]4N)c(CO)n2)c1 [Compound A65, (S)-N-(3-((3-(5-(1-amino-1,3-dihydrospiro[indene-2,4′-piperidin]-1′-yl)-6-(hydroxylmethyl)pyrazin-2-yl)prop-2-yn-1-yl)amino)phenyl)a cetamide] | 3.5 |  |  | 25 | 2.8 |
